# A melting point compilation (Tetko et al.; mined from patent text by program, amines drawn as free bases though some values may be those of a salt)
row,melting point [°C],SMILES
1,198 to 200,O=c1c(Cc2ccncc2)c(-c2ccc(Cl)cc2)[nH]c2c(Br)cc(Br)cc12
2,140 to 143,CCON=Cc1cc(-n2c(=O)cc(C(F)(F)F)n(C)c2=O)c(Cl)cc1Cl
3,79.5 to 80,CC(=O)Oc1cc(CCc2ccccc2)cc(OC(C)=O)c1OC(C)=O
4,202 to 203,CN1CCN(c2ccccc2-c2ccc(C#N)c(=O)[nH]2)CC1
5,272 to 274,C[C@H](NC(=O)c1c[nH]c2ncc(C3CC3)nc12)C(C)(C)O
6,88.2 to 91.5,COC(=O)c1ccccc1C(=O)c1ccc(CBr)cc1
7,89 to 90,O=C(O[C@@H]1CCN(CC#CCN2CCCC2)C1=O)c1ccc([N+](=O)[O-])cc1
8,178,Cc1cc(-n2cccn2)c2cccc(OCc3c(Cl)ccc(S(=O)(=O)N4CCOCC4)c3Cl)c2n1
9,115 to 118,O=S(=O)(N[C@H](CO)C1CCCCC1)c1ccc(Cl)cc1
10,142,OC(Cc1ccc(Cl)cc1Cl)(Cn1ccnc1)c1ccc(C2CCCCC2)cc1 (stereo unspecified)
11,93 to 95,CC(C)=Cc1ccc(-c2c(C(C)C)ccc(CO)c2C(C)C)nc1
12,233 to 234,O=c1[nH]c2cc(Cl)ccc2c(=O)c(-c2ccco2)c1O
13,73 to 74,CN(C)c1ccc(C2(C#N)CCCC2)cc1

# Second part, the compound before the results:
row,SMILES,melting point [°C]
1,CC(C)(C)Nc1c(NCc2ccccc2C(F)(F)F)c(=O)c1=O,237 to 239
2,Cn1c(-c2ccc(Cl)c(S(N)(=O)=O)c2)csc1=Nc1ccc(O)cc1,274
3,COC(=O)COc1cc2c(c3c1c(C(=O)C(N)=O)c(C)n3Cc1ccccc1Br)CCC2,200 to 207
4,CCCCc1nn(-c2cc(NC(=O)CC)ccc2C(F)(F)F)c(=O)n1Cc1ccc(-c2ccccc2S(=O)(=O)NC(=O)OC(C)(C)C)cc1F,167 to 169
5,COc1ccccc1S(=O)(=O)N(C)c1cccc2cc(C3=NCC(CC(=O)O)S3)[nH]c12 (stereo unspecified),197 to 198
6,CCC(CC)C(NC(=O)c1ccc(Cl)cc1)Nc1c(Nc2cccnc2)c(=O)c1=O (stereo unspecified),232 to 233
7,COC(=O)NC1CCN(c2nc(N3CCOCC3)c3ncnc(N(C)Cc4ccccc4)c3n2)CC1,110
8,CN(C1CCS(=O)(=O)C1)S(=O)(=O)c1ccc(Nc2nccc(Nc3ccc(F)cc3)n2)cc1 (stereo unspecified),236 to 240
9,OC(Cn1cncn1)(CC(Cl)(Cl)Cl)c1cc(Cl)cc(Cl)c1 (stereo unspecified),186
10,CN1C(=O)C(c2ccc(OC(F)F)cc2)(c2ccc(F)c(OCCC=C(F)F)c2)N=C1N (stereo unspecified),139 to 140
11,Cc1nc2ccc(OC3SCC(O)C(O)C3O)cc2s1 (stereo unspecified),184
12,CCCCCOC(=O)c1ccc(S(N)(=O)=O)cc1,96 to 98
13,Cc1ccccc1-c1ccc(C(=O)O)cc1C,140 to 143
14,COC(=O)NC(CC(=O)c1ccccc1)C(=O)O (stereo unspecified),132 to 135
15,Cc1ccc(C(=O)Nc2ccc(CN3CCCCC3)c(C(F)(F)F)c2)cc1-c1ccc2cnncc2c1,194 to 195
16,COc1cc(C=CC=C2SC(=O)NC2=O)ccc1OCc1csc(-c2ccccc2)n1,248 to 249
17,CN(C)c1ccc(C=Nn2ccnc2CCc2ccccc2)cc1,153 to 154
18,CC(=NOCCOc1ccc(CC2SC(=O)NC2=O)cc1)c1ccc(-c2ccc(C)cc2)cc1 (stereo unspecified),184 to 186
19,CSCCC(NC(=O)c1ccc(COc2cccnc2)cc1Oc1ccccc1)C(=O)O (stereo unspecified),195
20,COc1ccc2c(c1CNC(=O)OCC1c3ccccc3-c3ccccc31)Oc1c(ccc(OC)c1CC(=O)O)C2(C)C,134 to 136
21,CCOC(=O)Cc1nnc(NS(=O)(=O)c2ccc(NC(C)=O)cc2)s1,156 to 157
22,CC1(C)CN(CC(C)(O)c2ccc3c(c2)OCO3)c2nc(-c3ccncn3)cc(=O)n2C1 (stereo unspecified),194 to 196
23,COc1ccc(O[C@H](C)C(=O)O)c(C(=O)c2ccc(OCc3nc(-c4ccccc4)oc3C)cc2)c1,119 to 120
